The pIC50 is the IC50 on a negative log10 scale, so that one unit is a factor of ten.

Assay [1] addresses human A2b adenosine receptor (Homo sapiens (Human), UniProt P29275). The assay is described as follows: A2b radioligand filtration binding assay. The conditions noted are these: for pIC50: membranes from HEK293 cells expressing human A2b receptor. The method in brief:
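Membranes from HEK293 cells expressing human A2b receptor preincubated with compound 15 to 30 min at room temperature, then tritiated proprietary A2b antagonist (diluted to 14 nM before addition) added in PBS pH 7.4 for 60 min at room temperature. Bound radioactivity by filtration and scintillation; non-specific binding with 20 μM NECA; IC50 by 4-parameter logistic fit.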

For assay [2], the target named is human A2a adenosine receptor (Homo sapiens (Human), UniProt P29274). As to the kind of experiment: A2a receptor affinity radioligand binding assay ([3H] SCH58261). The conditions noted are these: for pIC50: membranes from HEK293 or CHO cells expressing human A2a receptor. Summed up: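 Membranes from HEK293 or CHO cells expressing human A2a were preincubated 15–30 min at room temperature with compound, then incubated 60 min at room temperature with [3H]SCH58261 (diluted to 4 nM) in 50 mM Tris pH 7.4, 10 mM MgCl2, 0.005% Tween20. Bound radioactivity was collected by filtration; nonspecific binding defined with 1 μM ZM241385; IC50 from 4-parameter logistic fit.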

pIC50: −log10 of the molar value.

human A2a adenosine receptor, sequence (P29274 whole entry): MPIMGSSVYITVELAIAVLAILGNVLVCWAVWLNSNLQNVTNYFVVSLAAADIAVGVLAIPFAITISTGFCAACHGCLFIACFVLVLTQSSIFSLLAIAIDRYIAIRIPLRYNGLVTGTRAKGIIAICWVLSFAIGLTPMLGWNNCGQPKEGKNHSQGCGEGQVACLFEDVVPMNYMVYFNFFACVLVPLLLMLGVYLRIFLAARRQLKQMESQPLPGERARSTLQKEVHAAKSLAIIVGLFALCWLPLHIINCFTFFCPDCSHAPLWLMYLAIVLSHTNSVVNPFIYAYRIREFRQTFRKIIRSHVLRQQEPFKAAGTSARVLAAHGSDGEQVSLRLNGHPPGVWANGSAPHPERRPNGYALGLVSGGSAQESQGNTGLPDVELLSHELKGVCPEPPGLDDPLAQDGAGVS
human A2b adenosine receptor, sequence (P29275 whole entry): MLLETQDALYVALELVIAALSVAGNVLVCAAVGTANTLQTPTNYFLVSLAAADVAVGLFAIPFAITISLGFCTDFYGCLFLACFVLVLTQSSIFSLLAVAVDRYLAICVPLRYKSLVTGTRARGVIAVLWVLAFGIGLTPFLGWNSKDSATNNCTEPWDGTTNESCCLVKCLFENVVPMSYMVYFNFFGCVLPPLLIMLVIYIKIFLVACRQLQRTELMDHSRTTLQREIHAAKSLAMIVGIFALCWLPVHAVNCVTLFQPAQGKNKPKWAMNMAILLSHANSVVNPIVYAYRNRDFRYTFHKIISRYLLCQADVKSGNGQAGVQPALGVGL

On to `COc1cc(F)cc2c1nc(N)n1nc([C@@H]3CC[C@@H](C)N(c4cn(CC(C)(C)O)nc4C)C3)nc21` (single isomer, unassigned) [Example 114, 1-(4-((2R or 2S,5R or 5S)-5-(5-amino-9-fluoro-7-methoxy-[1,2,4]triazolo[1,5-c]quinazolin-2-yl)-2-methylpiperidin-1-yl)-3-methyl-1H-pyrazol-1-yl)-2-methylpropan-2-ol], for which the pIC50 in assay [1] was 5.54; in assay [2], 7.30.
For `COc1cc(F)cc2c1nc(N)n1nc([C@@H]3CC[C@H](C)N(c4cn(CC(C)(C)O)nc4C)C3)nc21` (single isomer, unassigned) [Example 115, 1-(4-((2S or 2R,5R or 5S)-5-(5-amino-9-fluoro-7-methoxy-[1,2,4]triazolo[1,5-c]quinazolin-2-yl)-2-methylpiperidin-1-yl)-3-methyl-1H-pyrazol-1-yl)-2-methylpropan-2-ol] the same measures were 6.05 and 8.54.
`COc1cc(F)cc2c1nc(N)n1nc([C@H]3CC[C@H](C)N(c4cn(CC(C)(C)O)nc4C)C3)nc21` (single isomer, unassigned) [Example 116, 1-(4-((2S or 2R,5S or 5R)-5-(5-amino-9-fluoro-7-methoxy-[1,2,4]triazolo[1,5-c]quinazolin-2-yl)-2-methylpiperidin-1-yl)-3-methyl-1H-pyrazol-1-yl)-2-methylpropan-2-ol]: the “A2B binding % Inh. @ 10000 nM” value in assay [1] (@ 10000 nM) stood at 35% Inh. The pIC50 in assay [2] was 6.68.
For `COc1cc(F)cc2c1nc(N)n1nc([C@H]3CC[C@@H](C)N(c4cn(CC(C)(C)O)nc4C)C3)nc21` (single isomer, unassigned) [Example 117, 1-(4-((2R or 2S,5S or 5R)-5-(5-amino-9-fluoro-7-methoxy-[1,2,4]triazolo[1,5-c]quinazolin-2-yl)-2-methylpiperidin-1-yl)-3-methyl-1H-pyrazol-1-yl)-2-methylpropan-2-ol], the results for the pIC50 in assay [1] and in assay [2] were 7.89 and 9.70, respectively.
The like results for `COc1cc(F)cc2c1nc(N)n1nc(C3CCC(C)N(c4cnn(CC(C)(C)O)c4)C3)nc21` (single isomer, unassigned) [Example 118, 1-(4-((2R or 2S,5R or 5S)-5-(5-amino-9-fluoro-7-methoxy-[1,2,4]triazolo[1,5-c]quinazolin-2-yl)-2-methylpiperidin-1-yl)-1H-pyrazol-1-yl)-2-methylpropan-2-ol] were, in that order, 6.41 and 8.72.
Take `COc1cc(F)cc2c1nc(N)n1nc(C3CCC(C)N(c4cnn(CC(C)(C)O)c4)C3)nc21` (single isomer, unassigned) [Example 119, 1-(4-((2S or 2R,5S or 5R)-5-(5-amino-9-fluoro-7-methoxy-[1,2,4]triazolo[1,5-c]quinazolin-2-yl)-2-methylpiperidin-1-yl)-1H-pyrazol-1-yl)-2-methylpropan-2-ol]: the pIC50 in assay [1] is 5.89; in assay [2] it was 7.29.
The like results for `COc1cc(F)cc2c1nc(N)n1nc(C3CCC(C)N(c4cnn(CC(C)(C)O)c4)C3)nc21` (single isomer, unassigned) [Example 120, 1-(4-((2R or 2S,5S or 5R)-5-(5-amino-9-fluoro-7-methoxy-[1,2,4]triazolo[1,5-c]quinazolin-2-yl)-2-methylpiperidin-1-yl)-1H-pyrazol-1-yl)-2-methylpropan-2-ol] were, in that order, 8.11 and 9.22.
For `COc1cc(F)cc2c1nc(N)n1nc(C3CCC(C)N(c4cnn(CC(C)(C)O)c4)C3)nc21` (single isomer, unassigned) [Example 121, 1-(4-((2S or 2R,5R or 5S)-5-(5-amino-9-fluoro-7-methoxy-[1,2,4]triazolo[1,5-c]quinazolin-2-yl)-2-methylpiperidin-1-yl)-1H-pyrazol-1-yl)-2-methylpropan-2-ol] the same measures were 5.27 and 7.26.
For `COc1cc(F)cc2c1nc(N)n1nc(C3CCC(C)N(c4cnn(C(C)(C)CO)c4)C3)nc21` (single isomer, unassigned) [Example 122, 2-(4-((2R or 2S,5R or 5S)-5-(5-amino-9-fluoro-7-methoxy-[1,2,4]triazolo[1,5-c]quinazolin-2-yl)-2-methylpiperidin-1-yl)-1H-pyrazol-1-yl)-2-methylpropan-1-ol] the same measures were 5.69 and 6.43.
Consider `COc1cc(F)cc2c1nc(N)n1nc(C3CCC(C)N(c4cnn(C(C)(C)CO)c4)C3)nc21` (single isomer, unassigned) [Example 123, 2-(4-((2S or 2R,5S or 5R)-5-(5-amino-9-fluoro-7-methoxy-[1,2,4]triazolo[1,5-c]quinazolin-2-yl)-2-methylpiperidin-1-yl)-1H-pyrazol-1-yl)-2-methylpropan-1-ol], for which the pIC50 in assay [1] was 6.37; in assay [2], 9.52.
Regarding `COc1cc(F)cc2c1nc(N)n1nc(C3CCC(C)N(c4cnn(C(C)(C)CO)c4)C3)nc21` (single isomer, unassigned) [Example 124, 2-(4-((2R or 2S,5S or 5R)-5-(5-amino-9-fluoro-7-methoxy-[1,2,4]triazolo[1,5-c]quinazolin-2-yl)-2-methylpiperidin-1-yl)-1H-pyrazol-1-yl)-2-methylpropan-1-ol], the figures for the pIC50 in assay [1] and in assay [2] were 8.77 and 9.52, respectively.
For `COc1cc(F)cc2c1nc(N)n1nc(C3CCC(C)N(c4cnn(C(C)(C)CO)c4)C3)nc21` (single isomer, unassigned) [Example 125, 2-(4-((2S or 2R,5R or 5S)-5-(5-amino-9-fluoro-7-methoxy-[1,2,4]triazolo[1,5-c]quinazolin-2-yl)-2-methylpiperidin-1-yl)-1H-pyrazol-1-yl)-2-methylpropan-1-ol] the same measures were 5.60 and 7.06.
For `COc1cc2nc(N)n3nc(C4CCC(C)N(c5cnn(C(C)(C)CO)c5)C4)nc3c2cc1F` (single isomer, unassigned) [Example 126, rac-2-(4-((2R or 2S,5R or 5S)-5-(5-amino-9-fluoro-8-methoxy-[1,2,4]triazolo[1,5-c]quinazolin-2-yl)-2-methylpiperidin-1-yl)-1H-pyrazol-1-yl)-2-methylpropan-1-ol] the same measures were 5.67 and 8.59.
`COc1cc2nc(N)n3nc(C4CCC(C)N(c5cnn(C(C)(C)CO)c5)C4)nc3c2cc1F` (single isomer, unassigned) [Example 127, 2-(4-((2R or 2S,5R or 5S)-5-(5-amino-9-fluoro-8-methoxy-[1,2,4]triazolo[1,5-c]quinazolin-2-yl)-2-methylpiperidin-1-yl)-1H-pyrazol-1-yl)-2-methylpropan-1-ol]: the pIC50 was 5.94 in assay [1] and 6.92 in assay [2].
Take `COc1cc2nc(N)n3nc(C4CCC(C)N(c5cnn(C(C)(C)CO)c5)C4)nc3c2cc1F` (single isomer, unassigned) [Example 128]: the pIC50 in assay [1] is 8.62; in assay [2], 9.52.
For `COc1cc(F)cc2c1nc(N)n1nc(C3(F)CCCN(c4cnn(CC(C)(C)O)c4)C3)nc21` (single isomer, unassigned) [Example 133, (S or R)-1-(4-(3-(5-amino-9-fluoro-7-methoxy-[1,2,4]triazolo[1,5-c]quinazolin-2-yl)-3-fluoropiperidin-1-yl)-1H-pyrazol-1-yl)-2-methylpropan-2-ol] the same measures were 6.25 and 8.37.
For `COc1cc(F)cc2c1nc(N)n1nc(C3(F)CCCN(c4cnn(CC(C)(C)O)c4)C3)nc21` (single isomer, unassigned) [Example 134, (R or S)-1-(4-(3-(5-amino-9-fluoro-7-methoxy-[1,2,4]triazolo[1,5-c]quinazolin-2-yl)-3-fluoropiperidin-1-yl)-1H-pyrazol-1-yl)-2-methylpropan-2-ol] the same measures were 5.37 and 6.91.
Compound `COc1cc2nc(N)n3nc(C4CN(c5cn(CC(C)(C)O)nc5C)CCS4(=O)=O)nc3c2cc1F` (single isomer, unassigned) [Example 142, (R or S)-2-(5-amino-9-fluoro-8-methoxy-[1,2,4]triazolo[1,5-c]quinazolin-2-yl)-4-(1-(2-hydroxy-2-methylpropyl)-3-methyl-1H-pyrazol-4-yl)thiomorpholine 1,1-dioxide] gave a pIC50 in assay [1] of 5.10. The “A2A binding % Inh. @ 1000 nM” value in assay [2] is reported as 32% Inh. @.
Take `COc1cc2nc(N)n3nc(C4CN(c5cn(CC(C)(C)O)nc5C)CCS4(=O)=O)nc3c2cc1F` (single isomer, unassigned) [Example 143, (S or R)-2-(5-amino-9-fluoro-8-methoxy-[1,2,4]triazolo[1,5-c]quinazolin-2-yl)-4-(1-(2-hydroxy-2-methylpropyl)-3-methyl-1H-pyrazol-4-yl)thiomorpholine 1,1-dioxide]: the pIC50 in assay [1] is 5.12; in assay [2], 6.01.
`COc1cc2nc(N)n3nc(C4CN(c5cnn(CC(C)(C)O)c5C)CCS4(=O)=O)nc3c2cc1F` (single isomer, unassigned) [Example 144, (R or S)-2-(5-amino-9-fluoro-8-methoxy-[1,2,4]triazolo[1,5-c]quinazolin-2-yl)-4-(1-(2-hydroxy-2-methylpropyl)-5-methyl-1H-pyrazol-4-yl)thiomorpholine 1,1-dioxide] showed a negative-log IC50 (pIC50) in assay [1] of 5.15. Besides, in assay [2], the “A2A binding % Inh. @ 1000 nM” value turned out to be 30% Inh. @.

The values above are taken from patent US11312719B2, “9-substituted amino triazolo quinazoline derivatives as adenosine receptor antagonists, pharmaceutical compositions and their use” (Merck Sharp & Dohme Corp., priority 2018, dated 2022).
